Values after ≈ are worked out from the molar mass of the structure shown. Where two headings read alike, the source gives them in different places.
Key:
[1] = test system: S. epidermidis strain RP62A; assay: Biofilm prevention, crystal violet assay; format: cell-based, Staphylococcus epidermidis; conditions: for concentration causing a 50% reduction in biofilm formation: 24 h
Protocol: (§1) An indication of the biofilm prevention capabilities of 1771 and its derivatives 9–14 was achieved through the application of the crystal violet assay. S. aureus strain SH1000 and S. epidermidis strain RP62A were used, as they are strong biofilm formers. Overnight cultures were diluted 1:200 in fresh TSB containing 0.5% glucose (TSB-G), and 100 μL was added to individual wells in a 96-well microtiter plate. One hundred microliters of 1771 and 9–14 were diluted in TSB-G and added to bacteria at a final concentration ranging from 256 to 0.25 μg/mL with subsequent incubation for 24 h at 37 °C in a static incubator. Following incubation, biofilms were washed four times with ddH2O before being stained with 150 μL of 0.1% crystal violet for 30 min at room temperature. Following a further four washes in ddH2O, wells were resuspended in 200 μL of 7% acetic acid. The absorbance intensity of the crystal violet was measured at abs595nm in a Sunrise plate reader. Biomass formed was measured as a percentage of the no-compound control.

S. epidermidis = assay: MIC, broth microdilution (CLSI); format: cell-based, Staphylococcus epidermidis; conditions: Staphylococcus epidermidis, read-out: minimum inhibitory concentration
Protocol: (§2) S. aureus, S. epidermidis, E. faecalis, and E. faecium strains were routinely cultivated on tryptic soy agar (TSA) and grown for 18 h at 37 °C. S. aureus single colonies were subsequently transferred into 2 mL of tryptic soy broth (TSB) and grown for a further 18 h at 37 °C while being shaken at 180 rpm. S. pyogenes, S. agalactiae, and S. dysgalactiae strains were routinely cultured on TSA supplemented with 5% sheep blood and grown for 18 h at 37 °C with 5% CO2. E. coli was grown in LB broth at 37 °C. For LtaS-deficient strains, TSB was supplemented with 0.5 M NaCl to provide an osmotically balanced environment and instead grown at 30 °C. For strains harboring the pRMC2 tetracycline inducible vector,[61] the growth medium was supplemented with 10 μg/mL chloramphenicol and […] anhydrotetracycline hydrochloride (Sigma). Phenylalanine-arginine β-naphthylamide (PAβN) (Sigma) was dissolved in sterile water.
(§3) B. subtilis, staphylococcal, and enterococcal strains were grown in Mueller Hinton broth (MHB), while streptococcal strains were grown in MHB supplemented with 5% laked horse blood. All strains were grown for 18 h at 37 °C. The overnight cultures were subsequently subcultured 1:200 and grown to the exponential phase (OD600nm = 0.5–0.6) in fresh broth. 1771 and its derivatives 9–14 were reconstituted in DMSO and further diluted by performing a 1:2 serial dilution ranging between 256 and 0.125 μg/mL in a 96-well microtiter plate. One hundred microliters of 0.5 McFarland standardized inoculum (approximately equal to 5 × 10^5 cfu) were then dispensed into each well in the 96-well microtiter plate. The plate was incubated for 18 h at 37 °C.

S. aureus strain SH1000 = assay: Biofilm prevention, crystal violet assay; format: cell-based, Staphylococcus aureus; conditions: for concentration causing a 50% reduction in biofilm formation: SH1000, 24 h; for biofilm prevention compared with 1771: SH1000
Protocol: as §1

S. aureus = assay: MIC, broth microdilution (CLSI); format: cell-based, Staphylococcus aureus; conditions: for fold increase in the MIC when compared to 1771: S. aureus and S. epidermidis strains; for MIC: Staphylococcus aureus, read-out: minimum inhibitory concentration
Protocol: as §2, §3

SMILES	concentration causing a 50% reduction in biofilm formation [1]	MIC (S. epidermidis; strain 305)	MIC (S. epidermidis; strain 311)	MIC (S. epidermidis; strain 319)	MIC (S. epidermidis; strain 322)	MIC (S. epidermidis; strain 771)	MIC (S. epidermidis; strain 780)	MIC (S. epidermidis; strain RP62A)	concentration causing a 50% reduction in biofilm formation (S. aureus strain SH1000)	fold increase in the MIC when compared to 1771 (S. aureus)	MIC (S. aureus; NEWMAN, strain Newman)	MIC (S. aureus; strain EMRSA-15)	MIC (S. aureus; strain LAC)	MIC (S. aureus; strain MRSA252)	MIC (S. aureus; strain MW2)	MIC (S. aureus; strain Mu3)	MIC (S. aureus; strain Mu50)	MIC (S. aureus; strain SH1000)	MIC (S. aureus; strain TW20)	biofilm prevention compared with 1771 [1]	other results
COc1ccc2c(ccc3occ(CC(=O)OCC(=O)Nc4nnc(-c5ccccc5)o4)c32)c1 [Compound 9, 2-Oxo-2-((5-phenyl-1,3,4-oxadiazol-2-yl)amino)ethyl 2-(7-Methoxynaphtho[2,1-b]furan-1-yl)acetate]	16 to 64 µg/mL	64 mg/L (≈ 140 µM)	64 mg/L (≈ 140 µM)	64 mg/L (≈ 140 µM)	64 mg/L (≈ 140 µM)	64 mg/L (≈ 140 µM)	32 mg/L (≈ 70 µM)	32 mg/L (≈ 70 µM)	32 to 64 µg/mL	4- to 16 fold	32 mg/L (≈ 70 µM)	64 mg/L (≈ 140 µM)	32 to 64 mg/L (≈ 70 to 140 µM)	64 mg/L (≈ 140 µM)	64 mg/L (≈ 140 µM)	64 mg/L (≈ 140 µM)	64 mg/L (≈ 140 µM)	32 mg/L (≈ 70 µM)	32 mg/L (≈ 70 µM)		
O=C(COC(=O)Cc1coc2ccc3ccccc3c12)Nc1nnc(-c2cccc(Cl)c2)o1 [Compound 10, 2-((5-(3-Chlorophenyl)-1,3,4-oxadiazol-2-yl)amino)-2-oxoethyl 2-(Naphtho[2,1-b]furan-1-yl)acetate]	16 to 64 µg/mL	32 to 64 mg/L (≈ 69.3 to 139 µM)	32 to 64 mg/L (≈ 69.3 to 139 µM)	64 mg/L (≈ 139 µM)	64 mg/L (≈ 139 µM)	32 to 64 mg/L (≈ 69.3 to 139 µM)	32 to 64 mg/L (≈ 69.3 to 139 µM)	64 mg/L (≈ 139 µM)	32 to 64 µg/mL	4- to 16 fold	64 mg/L (≈ 139 µM)	32 to 64 mg/L (≈ 69.3 to 139 µM)	64 mg/L (≈ 139 µM)	64 mg/L (≈ 139 µM)	64 mg/L (≈ 139 µM)	64 mg/L (≈ 139 µM)	64 mg/L (≈ 139 µM)	64 mg/L (≈ 139 µM)	64 mg/L (≈ 139 µM)		
COc1ccc2c(ccc3occ(CC(=O)OCC(=O)Nc4nnc(-c5cccc(Cl)c5)o4)c32)c1 [Compound 11, 2-((5-(3-Chlorophenyl)-1,3,4-oxadiazol-2-yl)amino)-2-oxoethyl 2-(7-Methoxynaphtho[2,1-b]furan-1-yl)acetate]		2 to 4 mg/L (≈ 4.07 to 8.13 µM)	2 mg/L (≈ 4.07 µM)	2 mg/L (≈ 4.07 µM)	4 mg/L (≈ 8.13 µM)	2 mg/L (≈ 4.07 µM)	4 mg/L (≈ 8.13 µM)	2 to 4 mg/L (≈ 4.07 to 8.13 µM)			2 mg/L (≈ 4.07 µM)	2 mg/L (≈ 4.07 µM)	4 mg/L (≈ 8.13 µM)	4 mg/L (≈ 8.13 µM)	2 mg/L (≈ 4.07 µM)	2 mg/L (≈ 4.07 µM)	2 mg/L (≈ 4.07 µM)	2 mg/L (≈ 4.07 µM)	2 mg/L (≈ 4.07 µM)	better than 1771	biofilm prevention compared with 1771 (S. aureus strain SH1000): better than 1771
O=C(COC(=O)Cc1coc2ccc3ccccc3c12)Nc1nnc(-c2ccc(F)cc2)o1 [Compound 12, 2-((5-(4-Fluorophenyl)-1,3,4-oxadiazol-2-yl)amino)-2-oxoethyl 2-(Naphtho[2,1-b]furan-1-yl)acetate]		8 mg/L (≈ 18 µM)	4 to 8 mg/L (≈ 8.98 to 18 µM)	4 to 8 mg/L (≈ 8.98 to 18 µM)	8 mg/L (≈ 18 µM)	4 to 8 mg/L (≈ 8.98 to 18 µM)	4 to 8 mg/L (≈ 8.98 to 18 µM)	4 to 8 mg/L (≈ 8.98 to 18 µM)			8 mg/L (≈ 18 µM)	8 mg/L (≈ 18 µM)	8 mg/L (≈ 18 µM)	16 mg/L (≈ 35.9 µM)	8 mg/L (≈ 18 µM)	8 mg/L (≈ 18 µM)	4 to 8 mg/L (≈ 8.98 to 18 µM)	8 mg/L (≈ 18 µM)	8 mg/L (≈ 18 µM)	better	biofilm prevention compared with 1771 (S. aureus strain SH1000): worse than 1771
O=C(COC(=O)Cc1coc2ccc3ccccc3c12)Nc1nnc(-c2ccccc2)s1 [Compound 14, 2-Oxo-2-((5-phenyl-1,3,4-thiadiazol-2-yl)amino)ethyl 2-(Naphtho[2,1-b]furan-1-yl)acetate]	16 to 64 µg/mL	> 64 mg/L	> 64 mg/L	> 64 mg/L	> 64 mg/L	> 64 mg/L	> 64 mg/L	> 64 mg/L	32 to 64 µg/mL	4- to 16 fold	> 64 mg/L	> 64 mg/L	> 64 mg/L	> 64 mg/L	> 64 mg/L	> 64 mg/L	> 64 mg/L	> 64 mg/L	> 64 mg/L		

Reference: PMC10644342, “Improved Antibacterial Activity of 1,3,4-Oxadiazole-Based Compounds That Restrict Staphylococcus aureus Growth Independent of LtaS Function” (ACS Infectious Diseases, 2023)
